Source: ChEMBL document CHEMBL3046521, “Synthesis and antitumor activity of (4-hydroxyphenyl)[5-substituted alkyl/aryl)-2-thioxo-1,3,4-thiadiazol-3-yl]methanone and [(3,4-disubstituted)-1,3-thiazol-2ylidene]-4-hydroxybenzohydrazide” (2011)

Legend:
Format in all cases: functional
[1] = Cytotoxicity against Homo sapiens (human) NCI-ADR-RES cells after 48 hr by sulforhodamine B assay
SK-MEL-2 = test: Cytotoxicity against Homo sapiens (human) SK-MEL-2 cells after 48 hr by sulforhodamine B assay; settings: SK-MEL-2, 48 h
EKVX = test: Cytotoxicity against Homo sapiens (human) EKVX cells after 48 hr by sulforhodamine B assay
BT-549 = test: Cytotoxicity against Homo sapiens (human) BT549 cells after 48 hr by sulforhodamine B assay; settings: BT-549, 48 h
OVCAR-8 = test: Cytotoxicity against Homo sapiens (human) OVCAR8 cells after 48 hr by sulforhodamine B assay; settings: OVCAR-8, 48 h
RXF 393 = test: Cytotoxicity against Homo sapiens (human) RXF393 cells after 48 hr by sulforhodamine B assay; settings: RXF 393, 48 h
OVCAR-5 = test: Cytotoxicity against Homo sapiens (human) OVCAR5 cells after 48 hr by sulforhodamine B assay; settings: OVCAR-5, 48 h
CAKI-1 = test: Cytotoxicity against Homo sapiens (human) Caki1 cells after 48 hr by sulforhodamine B assay; settings: CAKI-1, 48 h
OVCAR-4 = test: Cytotoxicity against Homo sapiens (human) OVCAR4 cells after 48 hr by sulforhodamine B assay; settings: OVCAR-4, 48 h
NCI-H226 = test: Cytotoxicity against Homo sapiens (human) NCI-H226 cells after 48 hr by sulforhodamine B assay; settings: NCI-H226, 48 h
NCI-H460 = test: Cytotoxicity against Homo sapiens (human) NCI-H460 cells after 48 hr by sulforhodamine B assay; settings: NCI-H460, 48 h
T47D = test: Cytotoxicity against Homo sapiens (human) T47D cells after 48 hr by sulforhodamine B assay
SR = test: Cytotoxicity against Homo sapiens (human) SR cells after 48 hr by sulforhodamine B assay
786-0 = test: Cytotoxicity against Homo sapiens (human) 786-0 cells after 48 hr by sulforhodamine B assay; settings: 786-0, 48 h
NCI-H322M = test: Cytotoxicity against Homo sapiens (human) NCI-H322M cells after 48 hr by sulforhodamine B assay
HCC 2998 = test: Cytotoxicity against Homo sapiens (human) HCC2998 cells after 48 hr by sulforhodamine B assay; settings: HCC 2998, 48 h
SF-539 = test: Cytotoxicity against Homo sapiens (human) SF539 cells after 48 hr by sulforhodamine B assay; settings: SF-539, 48 h
KM12 = test: Cytotoxicity against Homo sapiens (human) KM12 cells after 48 hr by sulforhodamine B assay; settings: KM12, 48 h
PC-3 = test: Cytotoxicity against Homo sapiens (human) PC3 cells after 48 hr by sulforhodamine B assay; settings: PC-3, 48 h
HCT-116 = test: Cytotoxicity against Homo sapiens (human) HCT116 cells after 48 hr by sulforhodamine B assay; settings: HCT-116, 48 h
SN12C = test: Cytotoxicity against Homo sapiens (human) SN12C cells after 48 hr by sulforhodamine B assay
HOP-92 = test: Cytotoxicity against Homo sapiens (human) HOP92 cells after 48 hr by sulforhodamine B assay; settings: HOP-92, 48 h
MOLT-4 = test: Cytotoxicity against Homo sapiens (human) MOLT4 cells after 48 hr by sulforhodamine B assay; settings: MOLT-4, 48 h
U-251 = test: Cytotoxicity against Homo sapiens (human) U251 cells after 48 hr by sulforhodamine B assay; settings: U-251, 48 h
LOX IMVI = test: Cytotoxicity against Homo sapiens (human) LOXIMVI cells after 48 hr by sulforhodamine B assay
NCI-H522 = test: Cytotoxicity against Homo sapiens (human) NCI-H522 cells after 48 hr by sulforhodamine B assay; settings: NCI-H522, 48 h
SNB-19 = test: Cytotoxicity against Homo sapiens (human) SNB19 cells after 48 hr by sulforhodamine B assay; settings: SNB-19, 48 h
SF-268 = test: Cytotoxicity against Homo sapiens (human) SF268 cells after 48 hr by sulforhodamine B assay; settings: SF-268, 48 h
MCF7 = test: Cytotoxicity against Homo sapiens (human) MCF7 cells after 48 hr by sulforhodamine B assay; settings: MCF7, 48 h
HL-60(TB) = test: Cytotoxicity against Homo sapiens (human) HL-60(TB) cells after 48 hr by sulforhodamine B assay; settings: HL-60, 48 h
MDA-MB-435 = test: Cytotoxicity against Homo sapiens (human) MDA-MB-435 cells after 48 hr by sulforhodamine B assay; settings: MDA-MB-435, 48 h

COc1ccc(-c2cs/c(=N\NC(=O)c3ccc(O)cc3)n2-c2ccc(OC)cc2OC)cc1
GI50 [1]: 2.95 µM | LC50 [1]: > 100 µM | TGI ([1]; read-out: pTGI (converted)): 8.32 µM | GI50 (SK-MEL-2): 4.9 µM | LC50 (SK-MEL-2): > 100 µM | TGI (SK-MEL-2; read-out: pTGI (converted)): 72.4 µM | GI50 (EKVX): 6.92 µM | LC50 (EKVX): > 100 µM | TGI (EKVX; read-out: pTGI (converted)): > 100 µM | GI50 (BT-549): 14.1 µM | LC50 (BT-549): > 100 µM | TGI (BT-549; read-out: pTGI (converted)): 69.2 µM | GI50 (OVCAR-8): 10.2 µM | LC50 (OVCAR-8): > 100 µM | TGI (OVCAR-8; read-out: pTGI (converted)): > 100 µM | GI50 (RXF 393): 5.37 µM | LC50 (RXF 393): > 100 µM | TGI (RXF 393; read-out: pTGI (converted)): > 100 µM | GI50 (OVCAR-5): 6.92 µM | LC50 (OVCAR-5): > 100 µM | TGI (OVCAR-5; read-out: pTGI (converted)): 38 µM | GI50 (CAKI-1): 3.31 µM | LC50 (CAKI-1): > 100 µM | TGI (CAKI-1; read-out: pTGI (converted)): 52.5 µM | GI50 (OVCAR-4): 10.2 µM | LC50 (OVCAR-4): > 100 µM | TGI (OVCAR-4; read-out: pTGI (converted)): > 100 µM | GI50 (NCI-H226): 4.27 µM | LC50 (NCI-H226): > 100 µM | TGI (NCI-H226; read-out: pTGI (converted)): > 100 µM | GI50 (NCI-H460): 3.02 µM | LC50 (NCI-H460): > 100 µM | TGI (NCI-H460; read-out: pTGI (converted)): 13.5 µM | GI50 (T47D): 5.13 µM | LC50 (T47D): > 100 µM | TGI (T47D; read-out: pTGI (converted)): 79.4 µM | GI50 (SR): 2 µM | LC50 (SR): > 100 µM | TGI (SR; read-out: pTGI): > 100 µM | GI50 (786-0): 4.07 µM | LC50 (786-0): > 100 µM | TGI (786-0; read-out: pTGI (converted)): 26.3 µM | GI50 (NCI-H322M): 22.9 µM | LC50 (NCI-H322M): > 100 µM | TGI (NCI-H322M; read-out: pTGI (converted)): > 100 µM | GI50 (HCC 2998): 1.95 µM | LC50 (HCC 2998): 53.7 µM | TGI (HCC 2998; read-out: pTGI (converted)): 5.25 µM | GI50 (SF-539): 5.13 µM | LC50 (SF-539): 63.1 µM | TGI (SF-539; read-out: pTGI (converted)): 20.4 µM | GI50 (KM12): 2.63 µM | LC50 (KM12): 87.1 µM | TGI (KM12; read-out: pTGI (converted)): 8.51 µM | GI50 (PC-3): 3.39 µM | LC50 (PC-3): > 100 µM | TGI (PC-3; read-out: pTGI (converted)): > 100 µM | GI50 (HCT-116): 5.13 µM | LC50 (HCT-116): > 100 µM | TGI (HCT-116; read-out: pTGI (converted)): 28.2 µM | GI50 (SN12C): 6.61 µM | LC50 (SN12C): > 100 µM | TGI (SN12C; read-out: pTGI (converted)): 57.5 µM | GI50 (HOP-92): 3.31 µM | LC50 (HOP-92): > 100 µM | TGI (HOP-92; read-out: pTGI (converted)): 37.2 µM | GI50 (MOLT-4): 1.2 µM | LC50 (MOLT-4): > 100 µM | TGI (MOLT-4; read-out: pTGI (converted)): 23.4 µM | GI50 (U-251): 4.47 µM | LC50 (U-251): 93.3 µM | TGI (U-251; read-out: pTGI (converted)): 89.1 µM | GI50 (LOX IMVI): 3.8 µM | LC50 (LOX IMVI): 85.1 µM | TGI (LOX IMVI; read-out: pTGI (converted)): 15.8 µM | GI50 (NCI-H522): 2.57 µM | LC50 (NCI-H522): > 100 µM | TGI (NCI-H522; read-out: pTGI (converted)): 20 µM | GI50 (SNB-19): 10.7 µM | LC50 (SNB-19): > 100 µM | TGI (SNB-19; read-out: pTGI (converted)): > 100 µM | GI50 (SF-268): 5.75 µM | LC50 (SF-268): > 100 µM | TGI (SF-268; read-out: pTGI (converted)): 60.3 µM | GI50 (MCF7): 3.72 µM | LC50 (MCF7): > 100 µM | TGI (MCF7; read-out: pTGI (converted)): 28.8 µM | GI50 (HL-60(TB)): 3.02 µM | CC50 (HL-60(TB); read-out: pLC50 (the source's name) (converted)): > 100 µM | TGI (HL-60(TB); read-out: pTGI (converted)): 38 µM | GI50 (MDA-MB-435): 2.88 µM | LC50 (MDA-MB-435): > 100 µM | TGI (MDA-MB-435; read-out: pTGI (converted)): 22.9 µM
